# From US4540688A, “β-Lactam antibiotics” (Beecham Group p.l.c., priority 1982, dated 1985)
# Columns and labels:
# Type in all cases: cell-based
# E. coli NCTC 10418 = assay: Antibacterial in vitro activity (MIC), E. coli NCTC 10418; settings: Escherichia coli, NCTC10418
# [1] = tested on: Ps. aeruginosa NCTC 10662; assay: Antibacterial in vitro activity (MIC), Ps. aeruginosa NCTC 10662; settings: Pseudomonas aeruginosa
# P. rettgeri = assay: Antibacterial in vitro activity (MIC), P. rettgeri; settings: Providencia rettgeri
# N. catarrhalis 1502 = assay: Antibacterial in vitro activity (MIC), N. catarrhalis 1502
# E. cloacae N1 = assay: Antibacterial in vitro activity (MIC), E. cloacae N1; settings: Enterobacter cloacae
# E. coli ESS = assay: Antibacterial in vitro activity (MIC), E. coli ESS; settings: Escherichia coli
# E. coli JT425 = assay: Antibacterial in vitro activity (MIC), E. coli JT425; settings: Escherichia coli
# Ps. aeruginosa Dalgleish = assay: Antibacterial in vitro activity (MIC), Ps. aeruginosa Dalgleish; settings: Pseudomonas aeruginosa; Ps. aeruginosa Dalgleish 10^-2
# S. pyogenes CN10 = assay: Antibacterial in vitro activity (MIC), S. pyogenes CN10; settings: Streptococcus pyogenes
# E. coli JT4 = assay: Antibacterial in vitro activity (MIC), E. coli JT4; settings: Escherichia coli
# P. mirabilis C977 = assay: Antibacterial in vitro activity (MIC), P. mirabilis C977; settings: Proteus mirabilis
# S. marcesens US32 = assay: Antibacterial in vitro activity (MIC), S. marcesens US32
# K. aerogenes A = assay: Antibacterial in vitro activity (MIC), K. aerogenes A; settings: Klebsiella aerogenes
smiles,measurement,setting,value
"CCN1CCN(C(=O)N[C@@H](C(=O)N[C@@H]2C(=O)N3[C@@H](C(=O)O)CS[C@H]23)c2ccc(O)c(O)c2)C(=O)C1=O [Example 3, Sodium 6,β[D-2-(4-ethyl-2,3-dioxopiperazine-1-carbonylamino)-2-(3,4-dihydroxyphenyl)]acetamidobisnorpenicillanate]",MIC,E. coli NCTC 10418,20 µg/mL
same,MIC,"[1]; NCTC10662, Ps. aeruginosa NCTC 10662",1000 µg/mL
same,MIC,"[1]; NCTC10662, Ps. aeruginosa NCTC 10662 10^-2",100 µg/mL
same,MIC,P. rettgeri,200 µg/mL
same,MIC,N. catarrhalis 1502,20 µg/mL
same,MIC,E. cloacae N1,500 µg/mL
same,MIC,E. coli ESS,20 µg/mL
same,MIC,E. coli JT425,50 µg/mL
same,MIC,Ps. aeruginosa Dalgleish,2500 µg/mL
same,MIC,S. pyogenes CN10,500 µg/mL
same,MIC,E. coli JT4,1000 µg/mL
same,MIC,P. mirabilis C977,100 µg/mL
same,MIC,S. marcesens US32,200 µg/mL
same,MIC,K. aerogenes A,50 µg/mL
